Here are results for five molecules from article PMC5175284, “Mechanistic Study of Tetrahydrofuran- acetogenins In Triggering Endoplasmic Reticulum Stress Response-apotoposis in Human Nasopharyngeal Carcinoma” (Scientific Reports, 2016).

Experiment [1] deals with NPC-TW01 cells. Nature of the experiment: Mitochondrial Ca2+ concentration (Rhod-2, flow cytometry). Format: cell-based, human. The note with it: 24 hours. The method, then:
(§1) The cytosolic and mitochondrial Ca^2+ concentrations were measured using fluo-3 and Rhod-2, respectively. The intensity of de-esterification of intracellular AM esters in the THF-ACGs treated or control tumor cells were measured after 30 mins of incubation. For each analysis, 10,000 events were recorded and results were analyzed using De Novo software.

Experiment [2] relates to NPC-TW01 cells. Nature of the experiment: Growth inhibition assay (MTT), NPC-TW01. Format: cell-based. The note with it: Homo sapiens. The method, then: (§2) The colorimetric assay for cellular growth and survival was performed as described by Hansen et al., with slight modifications. Pre-determinate numbers of cells were seeded in a 96-well microplate and designated compounds at various concentrations were added for the indicated time period. MTT containing solution was added after compound treatment and conversion of MTT to formazan by metabolically viable cells was measured by absorbance at 490 nm in a 96-well microtiter plate reader. The percentage of conversion by mock-treated control cells was used to evaluate the effect of the chemicals on cell growth and to determine the IC50 concentration.

A further experiment concerns HONE-1 cells. Nature of the experiment: Growth inhibition assay (MTT), HONE-1. In kind it is cell-based. The note with it: Homo sapiens, HONE1, treated for three generations, read-out: Growth inhibitory activity IC50, HONE-1. The method, then: as §2
In a further experiment the test system is FaDu cells. Nature of the experiment: Growth inhibition assay (MTT), FaDu. Format: cell-based. The note with it: Homo sapiens, treated for three generations, read-out: Growth inhibitory activity IC50, FaDu. On the procedure:
as §2

The next experiment has as its system Jurkat cells. The experiment is described as follows: Growth inhibition assay (MTT), Jurkat. Format: cell-based. The following applies: Homo sapiens, treated for three generations, read-out: Growth inhibitory activity IC50, Jurkat. On the procedure: as §2
In another experiment the test system is H226 cells. The experiment is described as follows: Growth inhibition assay (MTT), H226. The following applies: Homo sapiens, NCI-H226, treated for three generations, read-out: Growth inhibitory activity IC50, H226. In kind it is cell-based. The method, then:
as §2

For another experiment, the system named is Hep 3B cells. Nature of the experiment: Growth inhibition assay (MTT), Hep 3B. Format: cell-based. The following applies: Homo sapiens, Hep3B, treated for three generations, footnote a, read-out: Growth inhibitory activity IC50, Hep 3B. The method, then:
as §2

Another experiment relates to HT-1080 cells. The experiment is described as follows: Growth inhibition assay (MTT), HT-1080. Format: cell-based. The following applies: Homo sapiens, treated for three generations, read-out: Growth inhibitory activity IC50, HT-1080. The method, then: as §2
A further experiment concerns Detroit 551 cells. Nature of the experiment: Growth inhibition assay (MTT), Detroit 551 normal fibroblasts. The following applies: Homo sapiens, treated for three generations, read-out: Growth inhibitory activity IC50, Detroit 551. In kind it is cell-based. The method, then: as §2
The next experiment relates to TW01-R-MTX cells. The experiment is described as follows: Growth inhibition assay (MTT), methotrexate-resistant NPC-TW01. Format: cell-based. The note with it: Homo sapiens, drug-resistant cell line, three generations, read-out: Growth inhibitory activity IC50, TW01-R-MTX. The method, then:
as §2

Another experiment deals with HONE R-MTX cells. Nature of the experiment: Growth inhibition assay (MTT), methotrexate-resistant HONE-1. In kind it is cell-based. The following applies: Homo sapiens, HONE1, drug-resistant cell line, three generations, read-out: Growth inhibitory activity IC50, HONE R-MTX. The method, then:
as §2

For the next experiment, the system named is OECM-1 cells. The experiment is described as follows: Growth inhibition assay (MTT), OECM-1. Format: cell-based. The following applies: Homo sapiens, OECM1, Supplemental Table 1, read-out: Growth inhibitory activity IC50, OECM-1. On the procedure:
as §2

Another experiment has as its system SCC-15 cells. The experiment is described as follows: Growth inhibition assay (MTT), SCC-15. Format: cell-based. The following applies: Homo sapiens, Supplemental Table 1, read-out: Growth inhibitory activity IC50, SCC-15. On the procedure: as §2
A further experiment concerns SCC-25 cells. Nature of the experiment: Growth inhibition assay (MTT), SCC-25. Format: cell-based. The following applies: Homo sapiens, Supplemental Table 1, read-out: Growth inhibitory activity IC50, SCC-25. The method, then: as §2
Experiment [3] relates to NPC-TW01 cells. Nature of the experiment: Cell cycle distribution by PI staining and flow cytometry. Format: cell-based, human. The note with it: IC50 concentration, 24 hours. On the procedure:
To measure the THF-ACGs effect on the cell cycle distribution, the THF-ACGs-treated cells were collected, fixed with ice-cold alcohol, treated with RNase and stained with propidium iodide. The DNA content of each sample was evaluated by FACScan flow cytometer and ratio of cell cycle phases were determined by ModFit software (Verity Software House Inc., Topsham, ME).
(A flow cytometer gives signals particle by particle.)

In experiment [4] the test system is NPC-TW01 cells. The experiment is described as follows: Annexin-V/PI apoptosis assay by flow cytometry. Format: cell-based, human. The note with it: IC50 concentration, 36 hours. The method, then:
THF-ACGs induced apoptotic phenomena were monitored by The Annexin V-FITC Apoptosis Detection Kit II (BD Biosciences Pharmingen) according to the manufacturer’s instructions. Briefly, THF-ACGs-treated or control cells were collected and resuspended in 400 μL 1 × binding buffer at a concentration of ~1 × 10^6 cells/ml, and 5 μL of purified recombinant Annexin V and PI reagent were added. After incubation at room temperature for 15 min in the dark, the intensity of Annexin V and PI was measured by flow cytometer immediately and results were analyzed using De Novo software (MultiCycle AV Plug-in for FCS Express).

Experiment [5] has as its system NPC-TW01 cells. The experiment is described as follows: Cytosolic Ca2+ concentration (Fluo-3, flow cytometry). In kind it is cell-based, human. The note with it: IC50 concentration, 24 hours. The method, then: as §1
Experiment [6] concerns NPC-TW01 cells. Nature of the experiment: Mitochondrial membrane potential (DiOC6 staining, flow cytometry). Format: cell-based, human. The following applies: IC50 concentration, 24 hours. On the procedure:
To measure the change of mitochondrial potential transition (MPT), THF-ACGs treated cells were labeled with 100 nM DiOC6, harvested and suspended in PBS. The intensity of DiOC6 in cells was measured using FACScan flow cytometer.

The test system of a further experiment is NPC-TW01 xenograft. The experiment is described as follows: NPC-TW01 s.c. xenograft antitumor experiment. The note with it: squamostatin A 0.5 mg/kg i.p. every three days; paclitaxel 10 mg/kg weekly. In kind it is in vivo, BALB/c nude mice. The method, then: For the antitumor xenograft experiments, specific pathogen–free male athymic BALB/c nude mice, 6 to 8 weeks of age, were inoculated with 1 × 10^6 of exponential growth viable NPC-TW01 cells at the right flank of mice and mice were randomly divided into three groups (8 in each group). Tumor-implanted mice were treated i.p. with vehicle (5% DMSO/10% cremophor/85% saline) or 0.5 mg/kg squamostatin A every three days. Paclitaxel (10 mg/kg, once a week) was used as a positive control. Tumor size was measured every three days with a caliper, and tumor volume was calculated by the following formula: V = (1/2) × […]. At the end of the experiments, the animals were euthanized by carbon dioxide inhalation, followed by cervical dislocation. The animal experiments were supervised and approved by the Institutional Animal Care and Use Committee (IACUC) of China Medical University (Taichung, Taiwan). All animal studies were performed in accordance with the Animal Protection Act of Taiwan.

Experiment [7] relates to NPC-TW01 cells. The experiment is described as follows: Caspase inhibition assay (MTT cell survival). In kind it is cell-based, human. The note with it: pretreated 1 hour, squamostatin A for 72 hours. On the procedure: For caspase inhibition experiments, cell-permeable and irreversible inhibitors of caspase-12 were added to the medium one hour before the administration of squamostatin A. Cell survival was determined using the MTT assay to evaluate the effects of the test compound on cell growth, as described previously.

Where [8] appears, read: treated for three generations, read-out: Growth inhibitory activity IC50, NPC-TW01.

Like-named read-outs stand apart in the source and are kept apart here. * marks the point of attachment. Cbz = O=C(OCc1ccccc1)*; CH2F = FC* Bounds are passed on as bounds.

Regarding `NCCOB(c1ccccc1)c1ccccc1` [2-APB, 2-Aminoethoxydiphenyl borate, reference compound], the “Content of mitochondrial calcium on squamostatin A treatment in the presence of 2-APB” value with NPC-TW01 cells [1] (2-APB 10 μM, squamostatin A IC50 concentration) is “diminish the content of mitochondrial calcium”.

One may read the IC50 as the concentration at which inhibition is half-maximal. Regarding `CCCCCCCCCCCC[C@@H](O)[C@H]1CC[C@@H]([C@@H](O)CCCCC(=O)CCCCCCCC2=C[C@H](C)OC2=O)O1` [corossolone], the half-inhibitory concentration (IC50) is 0.0313 µM in the experiment on NPC-TW01 cells [2] (Supplemental Table 1, read-out: Growth inhibitory activity IC50, NPC-TW01 (Supplemental Table 1)); 0.121 µM in the experiment with NPC-TW01 cells [2] (setting [8]); 0.132 µM in the experiment with HONE-1 cells; above 2 µM with FaDu cells (footnote a); 0.0003 µM in the experiment on Jurkat cells; above 2 µM in the experiment with H226 cells (footnote a). Besides, the IC50 in the experiment on Hep 3B cells was above 2 µM; in the experiment on HT-1080 cells, 0.705 µM; in the experiment with Detroit 551 cells, 0.354 µM; in the experiment with TW01-R-MTX cells, 0.0288 µM; in the experiment with HONE R-MTX cells, 0.147 µM; in the experiment with OECM-1 cells, above 2 µM. For the same molecule, the IC50 with SCC-15 cells and with SCC-25 cells was above 2 µM each time. For the same molecule, the “Cell cycle distribution, G0/G1” value with NPC-TW01 cells [3] amounted to 40.9%. Also, the “Cell cycle distribution, G2/M” value in the experiment with NPC-TW01 cells [3] is reported as 30.5%. For the same molecule, in the experiment with NPC-TW01 cells [3], the “Cell cycle distribution, S” value was 28.6%. Also, in the experiment on NPC-TW01 cells [4], the “Annexin-V positive, E (early phase apoptosis)” value is recorded as 4.9%. Besides, the “Annexin-V positive, L (late phase apoptosis)” value in the experiment on NPC-TW01 cells [4] turned out to be 7.4%. Besides, the “Ca2+ Cytosol (Fluo-3) GEO mean value, Treated” value in the experiment with NPC-TW01 cells [5] was found to be 149.2. The “Ca2+ Mitochondria (Rho-2) GEO mean value, Treated” value with NPC-TW01 cells [1] (IC50 concentration) worked out at 149.2. The “Increase of mitochondrial Ca2+ (Rho-2) vs Ctrl” value in the experiment with NPC-TW01 cells [1] (IC50 concentration) is reported as 29%. Also, the “Decrease of mitochondrial membrane potential vs Ctrl” value with NPC-TW01 cells [6] worked out at 27%. In addition, in the experiment on NPC-TW01 cells [6], the “Mitochondrial membrane potential GEO mean value, Treated” value is reported as 777.

Regarding `CN(Cc1cnc2nc(N)nc(N)c2n1)c1ccc(C(=O)N[C@@H](CCC(=O)O)C(=O)O)cc1` [methotrexate, reference compound], the concentration for half-maximal inhibition (IC50) is 0.043 µM with NPC-TW01 cells [2] (setting [8]); 0.0657 µM with HONE-1 cells; 0.0921 µM with FaDu cells; 0.0183 µM in the experiment with Jurkat cells; 0.0398 µM in the experiment on H226 cells; above 2 µM in the experiment with Hep 3B cells. Besides, the IC50 in the experiment with HT-1080 cells was determined as 0.0141 µM; in the experiment on Detroit 551 cells (footnote a), 2 µM; in the experiment with TW01-R-MTX cells (footnote b), 1900 µM; in the experiment with HONE R-MTX cells (footnote a) it was 39.6 µM.

For the molecule `CC(=O)O[C@H]1C(=O)[C@@]2(C)[C@H]([C@H](OC(=O)c3ccccc3)[C@]3(O)C[C@H](OC(=O)[C@H](O)[C@@H](NC(=O)c4ccccc4)c4ccccc4)C(C)=C1C3(C)C)[C@]1(OC(C)=O)CO[C@@H]1C[C@@H]2O` [paclitaxel, Paclitaxel], the “Overall tumor volume between weeks 6 and 13” value in the experiment on NPC-TW01 xenograft is given as “tumor continued growth slowly”.

For the molecule Cbz-ATAD-CH2F, the “Effect of caspase-12 inhibitor pretreatment on squamostatin A toxicity against NPC-TW01 cell growth” value in the experiment on NPC-TW01 cells [7] is on record as “significantly block the toxicity of squamostatin A”.
